The numbers were not newly measured in paper PMC7366343 (Journal of the American Chemical Society, 2019), which cites them from elsewhere.

Molecules are shown by their SMILES.

For orientation: IC50 means the concentration needed to halve the response being measured.

Data set [1] has as its target hTDO (Homo sapiens, UniProt P48775). The note with it: read-out: reported IC50 for hTDO.

Sequence of hTDO (P48775 whole entry): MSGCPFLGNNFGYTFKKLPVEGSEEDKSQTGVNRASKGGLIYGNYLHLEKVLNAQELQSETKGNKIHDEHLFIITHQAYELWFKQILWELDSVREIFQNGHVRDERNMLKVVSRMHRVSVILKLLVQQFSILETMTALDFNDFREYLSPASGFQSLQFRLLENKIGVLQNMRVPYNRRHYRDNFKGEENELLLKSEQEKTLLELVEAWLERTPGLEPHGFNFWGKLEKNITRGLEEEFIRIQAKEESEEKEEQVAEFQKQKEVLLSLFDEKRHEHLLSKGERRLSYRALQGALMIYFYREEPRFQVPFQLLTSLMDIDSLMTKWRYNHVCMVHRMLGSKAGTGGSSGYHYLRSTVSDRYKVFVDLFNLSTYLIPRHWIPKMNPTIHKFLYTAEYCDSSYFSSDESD

For the molecule `O=C1CC(c2c[nH]c3ccc(F)cc23)C(=O)N1` (centres unmarked) [IPD, 3-(5-Fluoro-1H-indol-3-yl)pyrrolidine-2,5-dione], the blood-brain barrier crossing result is “able to cross the blood-brain barrier”. Moreover, the IC50 in data set [1] is more than 50 µM.
